The source of these data is patent EP0543245A1, “Renin inhibiting amino acid derivatives” (F. HOFFMANN-LA ROCHE AG, priority 1991, dated 1993).

Structures are written as SMILES.

This assay has as its target T1, Human-Renin (Homo sapiens, UniProt P00797).
T1 sequence (P00797 67-406): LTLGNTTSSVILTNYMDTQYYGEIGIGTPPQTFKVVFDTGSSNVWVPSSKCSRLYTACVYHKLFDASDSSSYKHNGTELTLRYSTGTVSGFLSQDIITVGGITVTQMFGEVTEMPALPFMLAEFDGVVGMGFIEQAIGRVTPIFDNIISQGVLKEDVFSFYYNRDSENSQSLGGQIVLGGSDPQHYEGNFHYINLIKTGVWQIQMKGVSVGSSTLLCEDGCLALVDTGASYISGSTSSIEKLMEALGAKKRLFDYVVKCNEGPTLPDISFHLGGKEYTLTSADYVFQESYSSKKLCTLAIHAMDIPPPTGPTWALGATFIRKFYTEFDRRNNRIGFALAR
Kind of assay: In vitro test with pure human renin. It counts as biochemical. To be noted: human tetradecapeptide renin substrate (hTD), pH 7.4, 3 h at 37°C vs 4°C, angiotensin I measured by RIA, read-out: IC₅₀-Werte. The procedure:
In vitro-Test mit reinem Human-Renin
Der Test wird in Eppendorf Röhrchen durchgeführt. Die Inkubationsmischung besteht aus (1) 100 µl Human-Renin in Puffer A (0,1M Natriumphosphatlösung, pH 7.4, enthaltend 0,1% Rinderserumalbumin, 0,1% Natriumazid und 1 mM Aethylendiamintetraessigsäure), genügend für eine Renin-Aktivität von 2-3 ng Angiotensin I/ ml/Std.; (2) 145 µl Puffer A; (3) 30 µl von 10 µM humanem Tetradekapeptid-Reninsubstrat (hTD) in 10 mM Salzsäure; (4) 15 µl Dimethylsulfoxid mit bzw. ohne Hemmer und (5) 10 µl einer 0,03 molaren Lösung von Hydroxychinolinsulfat in Wasser.
Die Proben werden drei Stunden bei 37°C bzw. 4°C in Triplikaten inkubiert. 2 x 100 µl Proben pro Versuchsröhrchen werden dann verwendet, um die Produktion von Angiotensin I via RIA (standard radioimmunoassay; Clinical Assay solid phase kit) zu messen. Kreuzreaktivitäten der verwendeten Antikörper im RIA sind: Angiotensin I 100%; Angiotensin II 0,0013%; hTD (Angiotensin I-Val-Ile-His-Ser-OH) 0,09%. Die Produktion von Angiotensin I wird durch die Differenz zwischen dem Versuch bei 37°C und demjenigen bei 4°C bestimmt.
Folgende Kontrollen werden mitgeführt: • (a) Inkubation von hTD-Proben ohne Renin und ohne Hemmer bei 37°C und 4°C. Die Differenz zwischen diesen beiden Werten ergibt den Grundwert der Angiotensin I-Produktion. • (b) Inkubation von hTD-Proben mit Renin, jedoch ohne Hemmer bei 37°C und 4°C. Die Differenz zwischen diesen Werten ergibt den Maximalwert der Angiotensin I-Produktion.
In jeder Probe wird von der ermittelten Angiotenin I-Produktion der Grundwert der Angiotensin I-Produktion abgezogen. Die Differenz zwischen dem Maximalwert und dem Grundwert ergibt den Wert der maximalen Substrathydrolyse (=100%) durch Renin.
Die Resultate werden als IC₅₀-Werte angegeben, welche diejenige Konzentration des Hemmers bezeichnen, bei welcher die enzymatische Aktivität um 50% gehemmt wird. Die IC₅₀-Werte werden aus einer linearen Regressionskurve aus einem logit-log plot ermittelt.

Take `O=C(N[C@@H](Cc1ccccc1)[C@@H](O)[C@@H](O)C1CC1)C(Cc1cccnc1)c1nnc2c(C3CC3)nc(-c3cccnc3)cn12` (stereo partly drawn) [E, (R,S)-N-[(1S,2R,3S)-1-Benzyl-3-cyclopropyl-2,3-dihydroxypropyl]-8-cyclopropyl-6-(3-pyridyl)-α-(3-pyridylmethyl)-s-triazolo[4,3-a]pyrazin-3-acetamid]: the IC50 is 0.1 µM.
`C=CCC(C(=O)N[C@@H](CC1CCCCC1)[C@@H](O)[C@@H](O)C1CC1)c1nnc2c(CCC)nc(-c3cccnc3)cn12` (stereo partly drawn) [G, (R,S)-α-Allyl-N-[(1S,2R,3S)-1-(cyclohexylmethyl)3-cyclopropyl-2,3-dihydroxypropyl]-8-propyl-6-(3-pyridyl)-s-triazolo[4,3-a]pyrazin-3-acetamid]: the IC50 was found to be 0.016 µM.
For `O=C(N[C@@H](CC1CCCCC1)[C@@H](O)[C@@H](O)C1CC1)C(Cc1cscn1)c1nnc2c(CC3CC3)nc(-c3cccnc3)cn12` (single isomer, unassigned) [D], the IC50 was found to be 0.0023 µM.
In the case of `CC(C)Cc1nc(-c2cccnc2)nn2c(C(Cc3cccnc3)C(=O)N[C@@H](CC3CCCCC3)[C@@H](O)[C@@H](O)C3CC3)nnc12` (single isomer, unassigned) [F], the IC50 stood at 0.15 µM.
Next, `O=C(N[C@@H](CC1CCCCC1)[C@@H](O)[C@@H](O)C1CC1)C(Cc1cccnc1)c1nnc2c(CC3CC3)nc(-c3cccnc3)cn12` (single isomer, unassigned) [C]: 0.017 µM.
`O=C(N[C@@H](CC1CCCCC1)[C@@H](O)[C@@H](O)C1CC1)C(Cc1cscn1)c1nnc2c(C3CC3)nc(-c3cccnc3)cn12` (single isomer, unassigned) [B]: the IC50 came to 0.002 µM.
Turning to `O=C(N[C@@H](CC1CCCCC1)[C@@H](O)[C@@H](O)C1CC1)C(Cc1cccnc1)c1nnc2c(C3CC3)nc(-c3cccnc3)cn12` (single isomer, unassigned) [A], the IC50 was found to be 0.051 µM.
